In patent US3978055A, “Arylamino pyrimidinic derivatives” (priority 1973, dated 1976):

What was measured:
[1] = test system: Shay ulcers; assay: Gastric ulcers provoked by tying of the pylorus (Shay ulcers); type: in vivo; details: intraduodenal; rat, 50mg/kg/i.d.; read-out: Percentage reduction of shay ulcers
Procedure: The derivatives of formula I, administered by oral means, reduce the extent of gastric ulcers provoked in a rat by tying of the pylorus (Shay ulcers)
Table IV indicated, by way of example, the results obtained by the administration of 50mg/kg/i.d. of different derivatives of formula I.

[2] = test system: volume of urine emitted; assay: Augmentation of urinary elimination (diuretic properties); type: in vivo; details: po; mouse, 25mg/kg/p.o., 6 hours; read-out: Percentage augmentation of urinary elimination
Procedure: The derivatives of formula I, administered by oral means to the mouse, simultaneously with a volume of 1ml of an isotonic solution of sodium chloride per 25g of the corporeal weight of the mouse, are capable of provoking an augmentation of the volume of urine emitted by reference to control animals, the volume being measured for 6 hours following administration.
The following Table VII indicates, by way of example the percentage augmentation of urinary elimination resulting from the administration of 25mg/kg/p.o. of different derivatives of formula I.

[3] = Lethal doses / percentage mortality; type: in vivo; details: in vivo, mouse; for LD50: po, Table IX, read-out: DE 50 (second column; DL 50) (converted)
Source text: As a result of a comparison between the pharmacologically active doses mentioned above, and the lethal doses listed in the following table XIV, the difference between the doses is sufficiently great to permit the utilisation of the derivatives of formula I in therapeutics.

[4] = test system: isolated heart of guinea-pig; assay: Augmentation of flow of coronary vessels of isolated heart (vasodilatatory); details: Cavia porcellus, read-out: Percentage augmentation of flow of isolated heart of guinea-pig; for activation at 1 µg/mL: 1 μg/ml
Procedure: The derivatives of formula I are capable of augmenting the flow of the coronary vessels of this isolated heart of a guinea - pig, when said derivatives are added in the perfusion liquid of said organ.
The percentage augmentation of the flow of the isolated heart of the guinea - pig by adding different derivatives of formula I to the perfusion liquid are given by way of example in the following Table V.

[5] = test system: painful stretchings caused by phenylbenzoquinone; assay: Analgesic test with phenylbenzoquinone (painful stretchings); type: in vivo; details: Mus musculus, po; for ED50: read-out: 105 DE (DE 50)
[6] = test system: local oedema caused by sub-plantar injection of carraghenine; assay: Sub-plantar oedema caused by carraghenine (antiinflammatory); type: in vivo, rat; details: rat, read-out: Percentage reduction of subplantar oedema; for inhibition in vivo at 100 mg/kg: 100 mg/kg/PO
Source text: These properties are shown by a diminution of the local oedema caused by the sub-plantar injection of a phlogogenic agent, such as carraghenine, in the rat following the oral administration of derivatives of formula I.

[7] = test system: arterial pressure of anaesthetised rat; assay: Lowering of arterial pressure of anaesthetised rat (hypotensive properties); type: in vivo; details: 1 mg/kg/i.v.; for Duration of effect: hypotensive effect
Source text: Administered by intraveinous means to an anaesthetised rat, the derivatives of formula I provoke a lowering of the arterial pressure.
By way of example, the following Table VIII mentions the results obtained by administration of different derivatives of formula I.

[8] = test system: number of explorations in the escape enclosure; assay: Number of explorations in the escape enclosure (sedative properties); type: in vivo, mouse; details: po; mouse, escape enclosure, 100mg/kg/p.o.; read-out: Percentage diminution of number of explorations
[9] = read-out: Percentage of diminution of the number of painful stretchings

SMILES | inhibition in vivo at 50 mg/kg [1] | change in vivo at 25 mg/kg [2] | mortality ([3]; 2000 mg/kg, 2 000 mg/kg/PO) | inhibition in vivo at 100 mg/kg [6] | further results
Cc1cc(Nc2ccc(C(=O)N3CCOCC3)cc2)nc(-c2cccc(F)c2)n1 [72 754] | 40% | 50% | 0% |  | 
Cc1cc(Nc2ccc(OCCN3CCCCCC3)cc2)nc(-c2cccc(Cl)c2)n1 [730 283] | 45% |  |  |  | activation at 0.1 µg/mL ([4]; 0.1 μg/ml): 61%; inhibition in vivo at 100 mg/kg [5, 9]: 57%; mortality ([3]; 1000 mg/kg, 1 000 mg/kg/PO): ~50%
Cc1cc(Nc2ccc(OCCN(C)C)cc2)nc(-c2ccccc2)n1 [730 136] |  |  | 0% |  | inhibition in vivo at 100 mg/kg [5, 9]: 46%
CCOC(=O)c1ccc(Nc2cc(C)nc(-c3ccc(Cl)cc3)n2)cc1 [72 283] |  |  | 0% | 40% | 
Cc1cc(Nc2ccc(C(=O)N3CCN(c4ccccc4)CC3)cc2)nc(-c2ccc(Cl)cc2)n1 [72 260] | 35% |  | 0% |  | activation at 1 µg/mL [4]: 70%
Cc1cc(Nc2ccccc2C(=O)OCC(O)CO)nc(-c2ccc3c(c2)OCO3)n1 (stereo not shown) [72 686] |  |  | 0% |  | inhibition in vivo at 130 mg/kg [5, 9]: 50%; inhibition in vivo at 25 mg/kg ([6]; 25 mg/kg/PO): 35%
Cc1cc(Nc2ccc(C(=O)N(C)C)cc2)nc(-c2ccc(Cl)cc2)n1 [72 327] |  | 85% | 0% | 35% | Percentage reduction of arterial pressure of anaesthetised rat [7]: 30%; Duration of effect [7]: 30 mn
COc1cc(-c2nc(C)cc(Nc3ccc(C(=O)N4CCCCC4)cc3)n2)cc(OC)c1OC [72 317] | 40% |  | 0% | 35% | 
COc1cc(-c2nc(C)cc(Nc3ccc(C(=O)N4CCCC4)cc3)n2)cc(OC)c1OC [72 271, 2-(3',4',5'-trimethoxyphenyl)-4-(parapyrrolidinocarbonylphenylamino) -6-methyl pyrimidino] |  |  | 0% | 35% | inhibition in vivo at 100 mg/kg [8]: 40%
COc1cc(-c2nc(C)cc(Nc3ccc(C(=O)N4CCN(c5ccccc5)CC4)cc3)n2)cc(OC)c1OC [72 450] |  |  | 0% |  | inhibition in vivo at 100 mg/kg [8]: 35%; activation at 1 µg/mL [4]: 85%
Cc1cc(Nc2ccc(C(=O)N3CCOCC3)cc2)nc(-c2ccc3c(c2)OCO3)n1 [72 621] | 40% |  | ~30% |  | 
CCOC(=O)c1ccc(Nc2cc(C)nc(-c3cccc(C(F)(F)F)c3)n2)cc1 [72 505] |  |  | 0% |  | activation at 1 µg/mL [4]: 50%
Cc1cc(Nc2ccc(OCCN3CCCC3)cc2)nc(-c2cccc(C(F)(F)F)c2)n1 [730 243] |  |  |  | 50% | mortality ([3]; 1000 mg/kg, 1 000 mg/kg/PO): 0%
COc1cc(-c2nc(C)cc(Nc3ccc(C(=O)N4CCOCC4)cc3)n2)cc(OC)c1OC [72 536] |  |  | 0% | 35% | inhibition in vivo at 100 mg/kg [8]: 75%
Cc1cc(Nc2ccc(CC(=O)O)cc2)nc(-c2cccc(F)c2)n1 [730 234] |  |  |  | 35% | inhibition in vivo at 100 mg/kg [5, 9]: 55%; mortality ([3]; 2 400 mg/kg/PO): ~50%
COc1cc(-c2nc(C)cc(Nc3ccc(C(N)=O)cc3)n2)cc(OC)c1OC [72 417] | 40% | 65% | 0% |  | 
CCOC(=O)c1ccc(Nc2cc(C)nc(-c3cccc(F)c3)n2)cc1 [72 778] |  |  | 0% |  | inhibition in vivo at 100 mg/kg [8]: 35%
Cc1cc(Nc2ccc(C(N)=O)cc2)nc(-c2cccc(F)c2)n1 [72 773] | 40% | 110% | ~20% | 40% | inhibition in vivo at 100 mg/kg [8]: 45%
Cc1cc(Nc2ccc(OCCN3CCOCC3)cc2)nc(-c2cccc(Cl)c2)n1 [730 695] |  | 43% | 0% |  | inhibition in vivo at 100 mg/kg [5, 9]: 85%
Cc1cc(Nc2ccc(OCCN3CCCCC3)cc2)nc(-c2cccc(F)c2)n1 [730 231] | 50% |  |  |  | ED50 [5]: 27 mg/kg; mortality ([3]; 975 mg/kg/PO): ~50%; LD50 [3]: 975 mg/kg

SMILES | inhibition in vivo at 50 mg/kg [1] | change in vivo at 25 mg/kg [2] | mortality ([3]; 2000 mg/kg, 2 000 mg/kg/PO) | inhibition in vivo at 100 mg/kg [6] | further results
Cc1cc(Nc2ccc(C(=O)N3CCCCC3)cc2)nc(-c2ccc3c(c2)OCO3)n1 [72 687] | 40% |  | 0% |  | 
Cc1cc(Nc2ccccc2C(=O)OCC2COC(C)(C)O2)nc(-c2ccc3c(c2)OCO3)n1 (stereo not shown) [72 701] |  | 45% | 0% |  | inhibition in vivo at 100 mg/kg [5, 9]: 45%
Cc1cc(Nc2ccc(OCCN3CCOCC3)cc2)nc(-c2ccc3c(c2)OCO3)n1 [730 731] |  | 37% | 0% |  | Percentage reduction of arterial pressure of anaesthetised rat [7]: 29%; Duration of effect [7]: 30 mn; ED50 [5]: 27 mg/kg; LD50 [3]: > 2000 mg/kg
Cc1cc(Nc2ccccc2C(=O)OCC2COC(C)(C)O2)nc(-c2cccc(F)c2)n1 (stereo not shown) [72 796] |  |  | 0% |  | activation at 1 µg/mL [4]: 60%
COc1cc(-c2nc(C)cc(Nc3ccccc3C(=O)OCC3COC(C)(C)O3)n2)cc(OC)c1OC (stereo not shown) [71 510] | 35% |  | 0% | 40% | inhibition in vivo at 100 mg/kg [8]: 40%
CCOC(=O)c1ccc(Nc2cc(C)nc(-c3ccc4c(c3)OCO4)n2)cc1 [72 613] | 70% |  | 0% |  | activation at 1 µg/mL [4]: 85%
Cc1cc(Nc2ccccc2C(=O)OCC2COC(C)(C)O2)nc(-c2cccc(C(F)(F)F)c2)n1 (stereo not shown) [72 495, N-[2-(3'trifluoromethylphenyl) -6-methyl-4-pyrimidyl](2",2" -dimethyldioxolan-4"-yl) methyl anthranilate] |  | 115% | 0% |  | 
Cc1cc(Nc2ccc(C(N)=O)cc2)nc(-c2cccc(C(F)(F)F)c2)n1 [72 432] | 35% | 200% | 0% | 45% | inhibition in vivo at 100 mg/kg [8]: 35%
COc1cc(-c2nc(C)cc(Nc3ccc(C(=O)N4CCN(C)CC4)cc3)n2)cc(OC)c1OC [72 462] |  |  | 0% | 35% | inhibition in vivo at 100 mg/kg [5, 9]: 40%
Cc1cc(Nc2ccc(OCCN(C)C)cc2)nc(-c2cccc(F)c2)n1 [730 224] |  |  | 0% |  | ED50 [5]: 30 mg/kg; LD50 [3]: > 2000 mg/kg
COc1cc(-c2nc(C)cc(Nc3ccccc3C(N)=O)n2)cc(OC)c1OC [72 442] |  |  | 0% | 55% | inhibition in vivo at 100 mg/kg [8]: 60%; Percentage reduction of arterial pressure of anaesthetised rat [7]: 30%; Duration of effect [7]: 20 mn; inhibition in vivo at 100 mg/kg [5, 9]: 70%
Cc1cc(Nc2ccccc2C(N)=O)nc(-c2ccc(Cl)cc2)n1 [72 257] | 50% |  | 0% |  | activation at 1 µg/mL [4]: 80%
Cc1cc(Nc2ccc(OCCN3CCCCCC3)cc2)nc(-c2ccccc2)n1 [730 379] |  |  |  |  | mortality ([3]; 625 mg/kg/PO): ~50%
Cc1cc(Nc2ccc(OCCN3CCCCC3)cc2)nc(-c2ccccc2)n1 [730 221] |  |  |  |  | mortality ([3]; 520 mg/kg/PO): ~50%
Cc1cc(Nc2ccc(C(=O)N3CCCC3)cc2)nc(-c2ccc3c(c2)OCO3)n1 [72 623] |  | 85% | 0% |  | 
Cc1cc(Nc2ccccc2C(N)=O)nc(-c2cccc(F)c2)n1 [72 783] |  | 80% | 0% |  | 
Cc1cc(Nc2ccc(OCCN3CCOCC3)cc2)nc(-c2ccc(N(C)C)cc2)n1 [740 140] |  |  | 0% |  | Percentage reduction of arterial pressure of anaesthetised rat [7]: 40%; Duration of effect [7]: 30 mn; ED50 [5]: 33 mg/kg; LD50 [3]: > 2000 mg/kg
Cc1cc(Nc2ccc(C(=O)N3CCN(C)CC3)cc2)nc(-c2ccc(Cl)cc2)n1 [72 292] |  | 55% | 0% |  | 
Cc1cc(Nc2ccc(OCCN3CCOCC3)cc2)nc(-c2ccc(Cl)cc2)n1 [730 732] |  |  | 0% |  | ED50 [5]: 23 mg/kg; LD50 [3]: > 2000 mg/kg
